Results published in patent US6534507B1 (Fabre-Kramer Pharmaceuticals, Inc., priority 1999, dated 2003).
“And” between values parts separate entries of the source, which are not always exact repeats. Equal entries are not always repeated.

Assays:
5-HT1A receptor = molecular target: T1, 5-HT1A receptor (Homo sapiens, UniProt P08908); assay: human monoamine GPCR binding profile, 5-HT1A
T1 construct: expressed in transfected cells
T1 sequence (P08908 1-422): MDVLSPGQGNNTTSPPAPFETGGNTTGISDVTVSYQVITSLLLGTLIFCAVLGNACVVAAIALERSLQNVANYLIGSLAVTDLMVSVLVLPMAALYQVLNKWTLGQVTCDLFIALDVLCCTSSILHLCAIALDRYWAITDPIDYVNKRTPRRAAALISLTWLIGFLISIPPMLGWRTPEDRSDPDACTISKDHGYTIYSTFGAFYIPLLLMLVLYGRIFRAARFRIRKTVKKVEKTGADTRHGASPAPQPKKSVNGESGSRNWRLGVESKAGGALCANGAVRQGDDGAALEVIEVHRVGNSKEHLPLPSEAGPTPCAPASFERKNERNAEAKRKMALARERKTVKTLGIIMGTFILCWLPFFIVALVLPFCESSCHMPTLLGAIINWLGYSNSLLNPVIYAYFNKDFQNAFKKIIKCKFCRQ
Source text: (§1) As known in the art, human monoamine GPCR binding profiles were obtained using heterologously expressed cloned human GPCRs in the binding experiments. Both pKi and IC50 (nM concentration) values were obtained as well as an average value of each from at least three determinations.

D2A = molecular target: T2, D2A (Homo sapiens, UniProt P14416); assay: dopaminergic receptor binding, D2A; details: result in words
T2 construct: expressed in transfected cells
T2 sequence (P14416 whole entry): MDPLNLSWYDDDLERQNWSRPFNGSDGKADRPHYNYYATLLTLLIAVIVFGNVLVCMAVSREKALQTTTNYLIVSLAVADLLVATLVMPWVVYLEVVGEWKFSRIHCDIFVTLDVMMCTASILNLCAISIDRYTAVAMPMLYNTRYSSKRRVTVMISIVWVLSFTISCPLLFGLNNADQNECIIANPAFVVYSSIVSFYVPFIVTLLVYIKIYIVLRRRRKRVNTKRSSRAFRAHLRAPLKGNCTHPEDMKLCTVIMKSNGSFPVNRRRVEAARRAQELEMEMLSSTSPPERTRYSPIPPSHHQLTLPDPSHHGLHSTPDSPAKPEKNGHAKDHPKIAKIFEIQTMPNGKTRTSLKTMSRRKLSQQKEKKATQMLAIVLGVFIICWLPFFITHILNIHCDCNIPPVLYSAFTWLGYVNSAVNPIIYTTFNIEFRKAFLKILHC
Experimental: as §1
(§2) Dopaminergic receptors D2A, D2B, D3, and D4 were also tested.

D2B = molecular target: T3, D2B (Homo sapiens, UniProt P14416); assay: dopaminergic receptor binding, D2B; details: result in words
T3 construct: expressed in transfected cells
T3 sequence (P14416 1-414 isoform P14416-2): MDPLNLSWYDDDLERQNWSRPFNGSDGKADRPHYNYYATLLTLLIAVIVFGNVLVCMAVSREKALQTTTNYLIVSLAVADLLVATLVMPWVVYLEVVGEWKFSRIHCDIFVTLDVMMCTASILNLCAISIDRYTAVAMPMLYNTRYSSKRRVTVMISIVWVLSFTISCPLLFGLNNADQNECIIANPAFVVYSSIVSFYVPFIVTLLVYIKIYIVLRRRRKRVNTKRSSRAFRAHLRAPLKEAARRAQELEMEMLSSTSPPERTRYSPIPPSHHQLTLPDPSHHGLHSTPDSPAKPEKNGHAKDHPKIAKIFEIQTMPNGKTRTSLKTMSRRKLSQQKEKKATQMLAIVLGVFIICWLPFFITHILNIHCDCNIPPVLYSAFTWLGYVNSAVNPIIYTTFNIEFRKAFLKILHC
Experimental: as §1, §2

D3 = molecular target: T4, D3 (Homo sapiens, UniProt P35462); assay: dopaminergic receptor binding, D3; details: result in words
T4 construct: expressed in transfected cells
T4 sequence (P35462 whole entry): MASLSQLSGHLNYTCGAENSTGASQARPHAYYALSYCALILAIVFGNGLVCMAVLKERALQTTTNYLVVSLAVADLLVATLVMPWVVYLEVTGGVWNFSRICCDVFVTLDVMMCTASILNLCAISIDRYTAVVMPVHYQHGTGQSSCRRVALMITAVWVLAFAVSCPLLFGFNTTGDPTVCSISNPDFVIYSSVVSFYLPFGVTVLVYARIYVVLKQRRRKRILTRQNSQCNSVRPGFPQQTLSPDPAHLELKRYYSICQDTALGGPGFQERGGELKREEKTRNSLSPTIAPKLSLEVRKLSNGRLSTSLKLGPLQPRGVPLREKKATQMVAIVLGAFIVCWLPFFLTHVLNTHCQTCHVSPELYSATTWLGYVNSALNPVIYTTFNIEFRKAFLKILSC
Experimental: as §1, §2

D4 = molecular target: T5, D4 (Homo sapiens, UniProt P21917); assay: dopaminergic receptor binding, D4
T5 construct: expressed in transfected cells
T5 sequence (P21917 1-419): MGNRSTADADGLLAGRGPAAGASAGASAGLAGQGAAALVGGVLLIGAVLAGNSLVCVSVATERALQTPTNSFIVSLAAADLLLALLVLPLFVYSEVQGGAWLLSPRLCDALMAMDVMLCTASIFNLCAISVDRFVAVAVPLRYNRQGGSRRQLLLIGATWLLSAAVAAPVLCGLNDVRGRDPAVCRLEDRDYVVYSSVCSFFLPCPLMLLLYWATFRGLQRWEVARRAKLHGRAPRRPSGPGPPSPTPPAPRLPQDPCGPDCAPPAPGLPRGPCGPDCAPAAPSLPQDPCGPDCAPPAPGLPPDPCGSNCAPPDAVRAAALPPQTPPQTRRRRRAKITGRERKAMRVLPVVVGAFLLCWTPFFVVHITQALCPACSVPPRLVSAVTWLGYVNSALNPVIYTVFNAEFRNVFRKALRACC
Experimental: as §1, §2

Alpha 2A = molecular target: T6, Alpha 2A (Homo sapiens, UniProt P08913); assay: alpha-adrenergic receptor binding, Alpha 2A; details: result in words
T6 construct: expressed in transfected cells
T6 sequence (P08913 1-465): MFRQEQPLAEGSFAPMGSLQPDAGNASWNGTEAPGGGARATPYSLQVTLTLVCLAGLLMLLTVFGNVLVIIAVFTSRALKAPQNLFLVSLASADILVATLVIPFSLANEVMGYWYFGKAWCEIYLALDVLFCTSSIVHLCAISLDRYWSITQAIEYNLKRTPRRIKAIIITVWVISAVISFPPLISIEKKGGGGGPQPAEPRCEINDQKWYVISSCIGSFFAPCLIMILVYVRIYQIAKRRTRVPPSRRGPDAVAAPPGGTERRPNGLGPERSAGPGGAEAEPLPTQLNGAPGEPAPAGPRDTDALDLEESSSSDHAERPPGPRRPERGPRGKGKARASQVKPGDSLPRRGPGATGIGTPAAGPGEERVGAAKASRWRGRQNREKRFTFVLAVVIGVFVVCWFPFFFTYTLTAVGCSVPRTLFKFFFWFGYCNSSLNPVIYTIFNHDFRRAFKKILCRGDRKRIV
Experimental: as §1, §2

Alpha 2B = molecular target: T7, Alpha 2B (Homo sapiens, UniProt P18089); assay: alpha-adrenergic receptor binding, Alpha 2B; details: result in words
T7 construct: expressed in transfected cells
T7 sequence (P18089 1-450): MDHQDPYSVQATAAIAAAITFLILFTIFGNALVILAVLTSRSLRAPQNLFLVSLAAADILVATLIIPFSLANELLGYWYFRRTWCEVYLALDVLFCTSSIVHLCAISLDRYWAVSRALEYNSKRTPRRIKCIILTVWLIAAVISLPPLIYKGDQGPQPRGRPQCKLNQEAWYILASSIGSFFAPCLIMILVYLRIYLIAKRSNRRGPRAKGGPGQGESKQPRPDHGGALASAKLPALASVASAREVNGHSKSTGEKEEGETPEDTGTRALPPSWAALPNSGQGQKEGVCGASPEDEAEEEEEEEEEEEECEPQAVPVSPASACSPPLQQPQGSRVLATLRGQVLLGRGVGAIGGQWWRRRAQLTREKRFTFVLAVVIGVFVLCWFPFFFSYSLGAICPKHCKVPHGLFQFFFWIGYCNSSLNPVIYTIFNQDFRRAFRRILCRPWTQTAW
Experimental: as §1, §2

Alpha 2C receptor = molecular target: T8, Alpha 2C receptor (Homo sapiens, UniProt P18825); assay: alpha-adrenergic receptor binding, Alpha 2C; details: result in words
T8 construct: expressed in transfected cells
T8 sequence (P18825 1-462): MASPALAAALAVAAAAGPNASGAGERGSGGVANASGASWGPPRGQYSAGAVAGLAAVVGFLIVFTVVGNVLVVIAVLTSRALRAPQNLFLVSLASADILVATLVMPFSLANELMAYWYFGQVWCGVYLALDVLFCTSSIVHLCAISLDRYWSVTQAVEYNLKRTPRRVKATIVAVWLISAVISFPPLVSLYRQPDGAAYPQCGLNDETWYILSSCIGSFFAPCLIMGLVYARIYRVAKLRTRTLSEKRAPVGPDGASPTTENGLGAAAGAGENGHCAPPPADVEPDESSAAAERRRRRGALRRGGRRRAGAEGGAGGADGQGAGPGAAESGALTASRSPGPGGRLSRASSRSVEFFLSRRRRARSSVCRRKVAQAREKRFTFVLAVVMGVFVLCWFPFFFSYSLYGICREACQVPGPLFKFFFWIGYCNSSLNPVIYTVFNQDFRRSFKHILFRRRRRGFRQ
Experimental: as §1, §2

M1 = molecular target: T9, M1 (Homo sapiens, UniProt P11229); assay: muscarinic receptor binding, M1; details: read-out: pKi M1 (converted)
T9 construct: expressed in transfected cells
T9 sequence (P11229 1-460): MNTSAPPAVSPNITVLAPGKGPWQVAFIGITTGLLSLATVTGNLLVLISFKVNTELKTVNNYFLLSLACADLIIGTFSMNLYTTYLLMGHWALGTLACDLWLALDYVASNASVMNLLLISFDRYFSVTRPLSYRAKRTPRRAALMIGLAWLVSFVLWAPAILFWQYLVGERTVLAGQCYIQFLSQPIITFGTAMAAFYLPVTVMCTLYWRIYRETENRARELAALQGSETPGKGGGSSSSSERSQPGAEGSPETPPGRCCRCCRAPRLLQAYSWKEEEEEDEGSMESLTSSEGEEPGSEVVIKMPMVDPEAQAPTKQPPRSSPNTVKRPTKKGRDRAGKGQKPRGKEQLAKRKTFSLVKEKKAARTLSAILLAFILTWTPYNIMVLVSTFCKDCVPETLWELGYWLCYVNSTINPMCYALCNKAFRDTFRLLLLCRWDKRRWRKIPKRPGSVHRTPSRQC
Source text: as §1

M2 = molecular target: T10, M2 (Homo sapiens, UniProt P08172); assay: muscarinic receptor binding, M2; details: read-out: pKi M2 (converted)
T10 construct: expressed in transfected cells
T10 sequence (P08172 1-466): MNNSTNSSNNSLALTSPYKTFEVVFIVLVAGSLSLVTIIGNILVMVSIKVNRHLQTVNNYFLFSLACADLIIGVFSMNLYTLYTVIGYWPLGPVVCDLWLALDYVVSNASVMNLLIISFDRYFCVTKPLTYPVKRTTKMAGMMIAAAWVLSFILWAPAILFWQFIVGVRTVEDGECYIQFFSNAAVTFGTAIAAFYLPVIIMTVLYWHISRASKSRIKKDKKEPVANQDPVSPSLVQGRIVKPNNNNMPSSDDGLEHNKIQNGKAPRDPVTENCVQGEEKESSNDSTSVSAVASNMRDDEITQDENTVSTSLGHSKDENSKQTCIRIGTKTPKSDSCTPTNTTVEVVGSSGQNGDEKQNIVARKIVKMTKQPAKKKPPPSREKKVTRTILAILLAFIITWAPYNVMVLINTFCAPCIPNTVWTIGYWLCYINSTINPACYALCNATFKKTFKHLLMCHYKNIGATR
Source text: as §1

M3 = molecular target: T11, M3 (Homo sapiens, UniProt P20309); assay: muscarinic receptor binding, M3; details: read-out: pKi M3 (converted)
T11 construct: expressed in transfected cells
T11 sequence (P20309 whole entry): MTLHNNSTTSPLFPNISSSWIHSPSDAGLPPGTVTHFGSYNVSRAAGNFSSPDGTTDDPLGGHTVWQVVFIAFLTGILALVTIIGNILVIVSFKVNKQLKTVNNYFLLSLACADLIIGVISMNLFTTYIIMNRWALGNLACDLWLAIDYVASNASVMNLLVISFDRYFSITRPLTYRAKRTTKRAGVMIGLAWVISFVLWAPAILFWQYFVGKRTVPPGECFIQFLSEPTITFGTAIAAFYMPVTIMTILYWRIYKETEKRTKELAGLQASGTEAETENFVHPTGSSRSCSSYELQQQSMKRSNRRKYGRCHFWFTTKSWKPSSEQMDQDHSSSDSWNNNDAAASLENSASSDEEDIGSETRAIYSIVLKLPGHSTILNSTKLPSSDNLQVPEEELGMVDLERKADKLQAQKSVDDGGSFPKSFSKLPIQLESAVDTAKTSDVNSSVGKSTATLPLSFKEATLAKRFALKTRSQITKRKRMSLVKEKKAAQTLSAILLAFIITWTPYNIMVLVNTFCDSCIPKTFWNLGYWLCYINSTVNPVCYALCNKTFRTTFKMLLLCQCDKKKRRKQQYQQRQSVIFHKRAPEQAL
Source text: as §1

M4 = molecular target: T12, M4 (Homo sapiens, UniProt P08173); assay: muscarinic receptor binding, M4; details: read-out: pKi M4 (converted)
T12 construct: expressed in transfected cells
T12 sequence (P08173 1-479): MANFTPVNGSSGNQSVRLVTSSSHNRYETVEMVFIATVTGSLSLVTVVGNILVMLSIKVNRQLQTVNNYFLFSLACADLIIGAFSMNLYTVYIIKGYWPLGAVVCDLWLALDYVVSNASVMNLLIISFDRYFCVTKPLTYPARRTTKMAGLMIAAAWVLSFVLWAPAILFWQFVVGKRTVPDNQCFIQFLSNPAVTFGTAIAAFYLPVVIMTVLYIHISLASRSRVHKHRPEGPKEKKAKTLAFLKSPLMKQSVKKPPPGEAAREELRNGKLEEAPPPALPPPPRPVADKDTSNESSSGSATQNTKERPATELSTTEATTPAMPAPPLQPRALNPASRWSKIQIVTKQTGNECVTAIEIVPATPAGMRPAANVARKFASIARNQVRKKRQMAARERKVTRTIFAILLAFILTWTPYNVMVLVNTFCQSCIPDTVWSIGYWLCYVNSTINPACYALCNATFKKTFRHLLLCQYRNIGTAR
Source text: as §1

[1] = plasma levels of 3-OH gepirone after administration of gepirone; assay type: in vivo; details: human subjects administered a dose of gepirone; FIG. 2; result in words
Experimental: “Time (H)” represents time after administration.
Each sample corresponds to a 0.5 ml plasma sample, extracted with 6 ml of (2:1) (v/v) hexane:chloroform for 1 hour. After separation by centrifuge, the organic layer is transferred to a 10 ml conical tube and 90 ul of 1% formic acid is added. The tube is vortexed for 10 minutes and centrifuged for 5 minutes. About 80 ul of the formic acid layer is transferred into injection vials for HPLC/MS analysis.

[2] = cited from earlier work; for half-life: result in words

| IC50 (5-HT1A receptor; cloned human GPCR, average of at least three determinations) | selectivity for the 5-HT1A receptor among the serotonergic receptor subtypes (5-HT1A receptor; in vitro binding studies, result in words) | binding at D2A (D2A) | binding at D2B (D2B) | binding at D3 (D3) | IC50 (D4) [µM] | affinity at Alpha 2A (Alpha 2A) | affinity at Alpha 2B (Alpha 2B) | binding at the Alpha 2C receptor (Alpha 2C receptor) | Ki (M1) [µM] | Ki (M2) [µM] | Ki (M3) [µM] | Ki (M4) [µM] | SMILES | plasma levels of 3-OH gepirone [1] | half-life [2] | bioavailability ([2]; delivered orally) |
| --- | --- | --- | --- | --- | --- | --- | --- | --- | --- | --- | --- | --- | --- | --- | --- | --- |
| < 0.1 µM and ~0.058 µM | highly selective | insignificant dopaminergic binding | insignificant dopaminergic binding | insignificant dopaminergic binding | ~1.42 | did not display significant affinity | did not display significant affinity | weak binding | > 45.7 | > 45.7 | > 45.7 | > 45.7 | CC1(C)CC(=O)N(CCCCN2CCN(c3ncccn3)CC2)C(=O)C1O (stereo not drawn) [3-OH gepirone, 4,4,-dimethyl-3-hydroxy-1-[4-[4-(2-pyrimidinyl)-1-piperazinyl]butyl]-2,6-piperidinedione] | available quickly and persists in the plasma for extended periods of time | – | – |
| – | – | – | – | – | – | – | – | – | – | – | – | – | O=C1CC2(CCCC2)CC(=O)N1CCCCN1CCN(c2ncccn2)CC1 [buspirone] | – | very short | – |
| – | – | – | – | – | – | – | – | – | > 45.7 | > 45.7 | > 45.7 | > 45.7 | CC1(C)CC(=O)N(CCCCN2CCN(c3ncccn3)CC2)C(=O)C1 [gepirone, 4-dimethyl-1-[4-[4-(2-pyrimidinyl)-1-piperazinyl]butyl]-2,6-piperidinedione, reference compound] | – | very short | 14-18% |
